Experimental data reported in ChEMBL document CHEMBL5154919, “New ZW4864 Derivatives as Small-Molecule Inhibitors for the β-Catenin/BCL9 Protein-Protein Interaction” (ACS Med Chem Lett, 2022).
The source made the active and inactive calls. The rule behind the calls is not given here.

What was measured:
[1] = Effect of Wnt/beta-Catenin signaling pathway in human SW480 cells assessed as reduction in Axin2 level at 10 uM incubated for 24 hrs by qRT-PCR analysis relative to control; type: functional; details: SW480, 24 h
[2] = Inhibition of Wnt/beta-catenin transactivation signalling in human SW480 cells by TOPFlash reporter gene assay; type: cell-based
SW480 [3] = assay: Antiproliferative activity against human SW480 cells assessed as inhibition of cell growth measured by MTS method; type: functional, cell-based
HCT-116 = assay: Antiproliferative activity against human HCT-116 cells assessed as inhibition of cell growth measured by MTS method; type: functional, cell-based
MDA-MB-468 [4] = assay: Antiproliferative activity against human MDA-MB-468 cells assessed as inhibition of cell growth measured by MTS method; type: functional, cell-based
MCF-10A = assay: Antiproliferative activity against human MCF-10A cells assessed as inhibition of cell growth measured by MTS method; type: functional, cell-based
SW480 [5] = assay: Inhibition of Wnt/beta-catenin transactivation signalling in human SW480 cells transfected with beta-catenin plasmid at 10 uM by TOPFlash luciferase assay; type: cell-based
MDA-MB-468 [6] = assay: Effect of Wnt/beta-Catenin signaling in human MDA-MB-468 cells transfected with beta-catenin plasmid assessed as inhibition of cell growth rescue measured after 72 hrs by MTS assay; type: functional, cell-based
[7] = molecular target: beta-catenin-B-cell lymphoma 9 protein complex (Homo sapiens) (UniProt P35222+O00512); assay: Disruption of beta-catenin/N-terminal biotinylated human BCL9 HD2 (350 to 375 residues) protein-protein interaction in human SW480 cells incubated for 1 hr followed by N-terminal biotinylated human BCL9 HD2 addition and measured after 2 hrs by immunoblot based pull-down assay; type: cell-based; details: time 3.0 hrs, DDE = dose-dependent effect
[8] = Effect of Wnt/beta-Catenin signaling pathway in human SW480 cells assessed as reduction in Cyclin D1 level at 10 uM incubated for 24 hrs by qRT-PCR analysis relative to control; type: functional; details: SW480, 24 h
[9] = Effect of Wnt/beta-Catenin signaling pathway in human SW480 cells assessed as reduction in BCL9L level at 10 uM incubated for 24 hrs by qRT-PCR analysis relative to control; type: functional; details: SW480, 24 h
SW480 [10] = assay: Effect of Wnt/beta-Catenin signaling pathway in human SW480 cells assessed as decrease in Cyclin D1 level at 20 uM incubated for 24 hrs by Western blot analysis; type: functional, cell-based; details: DDE = dose-dependent effect
[11] = Metabolic stability in human Hepatocyte assessed as half life; type: ADME, cell-based; details: hepatocytes
[12] = Metabolic stability in mouse Hepatocyte assessed as half life; type: ADME, cell-based; details: hepatocytes
CYP1A2 = molecular target: T1, CYP1A2 (Homo sapiens, UniProt P05177); assay: Inhibition of CYP1A2 in human liver microsomes using phenacetin at 10 uM in presence of NADPH incubated for 10 mins; type: ADME, Microsome; details: probe phenacetin
T1 sequence (P05177 whole entry): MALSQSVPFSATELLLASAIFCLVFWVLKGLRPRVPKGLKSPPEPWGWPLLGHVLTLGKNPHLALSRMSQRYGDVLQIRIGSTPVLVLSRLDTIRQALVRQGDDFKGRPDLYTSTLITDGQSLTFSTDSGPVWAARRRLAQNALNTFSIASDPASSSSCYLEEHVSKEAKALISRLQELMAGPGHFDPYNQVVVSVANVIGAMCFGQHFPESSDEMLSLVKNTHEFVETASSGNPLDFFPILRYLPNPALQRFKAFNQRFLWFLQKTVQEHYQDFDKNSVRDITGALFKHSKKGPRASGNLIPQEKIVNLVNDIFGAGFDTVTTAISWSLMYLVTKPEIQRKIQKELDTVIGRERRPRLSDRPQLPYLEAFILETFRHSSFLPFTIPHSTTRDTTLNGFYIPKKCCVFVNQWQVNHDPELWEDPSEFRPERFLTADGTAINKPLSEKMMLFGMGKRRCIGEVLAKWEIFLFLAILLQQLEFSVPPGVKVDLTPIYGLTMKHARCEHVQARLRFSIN

CYP2C9 = CYP2C9 (Homo sapiens, UniProt P11712); assay: Inhibition of CYP2C9 in human liver microsomes using tolbutamide as substrate at 10 uM in presence of NADPH incubated for 10 mins; type: ADME, Microsome; details: probe tolbutamide
Sequence of CYP2C9 (P11712 whole entry): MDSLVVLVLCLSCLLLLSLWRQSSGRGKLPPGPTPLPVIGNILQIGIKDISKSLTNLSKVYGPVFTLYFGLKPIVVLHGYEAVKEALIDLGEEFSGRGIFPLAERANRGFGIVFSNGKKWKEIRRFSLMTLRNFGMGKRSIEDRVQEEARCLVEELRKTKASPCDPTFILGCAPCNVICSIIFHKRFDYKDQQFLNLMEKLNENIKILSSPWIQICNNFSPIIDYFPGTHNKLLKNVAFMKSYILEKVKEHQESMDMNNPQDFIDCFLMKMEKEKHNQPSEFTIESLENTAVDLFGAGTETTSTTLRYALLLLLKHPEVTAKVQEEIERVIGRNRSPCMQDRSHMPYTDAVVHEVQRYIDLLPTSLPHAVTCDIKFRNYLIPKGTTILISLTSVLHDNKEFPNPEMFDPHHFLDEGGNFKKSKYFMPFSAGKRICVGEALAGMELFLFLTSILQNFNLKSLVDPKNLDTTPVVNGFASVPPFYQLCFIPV

CYP2D6 = CYP2D6 (Homo sapiens, UniProt P10635); assay: Inhibition of CYP2D6 in human liver microsomes using bufuralol as substrate at 10 uM in presence of NADPH incubated for 10 mins; type: ADME, Microsome; details: probe bufuralol
Sequence of CYP2D6 (P10635 whole entry): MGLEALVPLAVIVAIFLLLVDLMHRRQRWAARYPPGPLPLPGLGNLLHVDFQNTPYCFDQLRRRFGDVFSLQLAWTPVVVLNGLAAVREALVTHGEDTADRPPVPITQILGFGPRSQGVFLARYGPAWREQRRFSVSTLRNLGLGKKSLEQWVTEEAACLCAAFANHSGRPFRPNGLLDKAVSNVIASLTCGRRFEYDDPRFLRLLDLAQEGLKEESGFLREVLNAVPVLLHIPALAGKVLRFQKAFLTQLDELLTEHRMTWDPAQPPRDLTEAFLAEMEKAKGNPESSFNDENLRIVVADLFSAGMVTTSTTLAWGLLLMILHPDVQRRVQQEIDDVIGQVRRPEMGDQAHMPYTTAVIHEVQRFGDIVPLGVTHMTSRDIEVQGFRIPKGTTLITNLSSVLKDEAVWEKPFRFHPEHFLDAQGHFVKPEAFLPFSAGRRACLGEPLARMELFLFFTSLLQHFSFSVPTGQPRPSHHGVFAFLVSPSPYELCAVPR

CYP3A4 = CYP3A4 (Homo sapiens, UniProt P08684); assay: Inhibition of CYP3A4 in human liver microsomes using Midazolam as substrate at 10 uM in presence of NADPH incubated for 10 mins; type: ADME, Microsome; details: probe midazolam
Sequence of CYP3A4 (P08684 whole entry): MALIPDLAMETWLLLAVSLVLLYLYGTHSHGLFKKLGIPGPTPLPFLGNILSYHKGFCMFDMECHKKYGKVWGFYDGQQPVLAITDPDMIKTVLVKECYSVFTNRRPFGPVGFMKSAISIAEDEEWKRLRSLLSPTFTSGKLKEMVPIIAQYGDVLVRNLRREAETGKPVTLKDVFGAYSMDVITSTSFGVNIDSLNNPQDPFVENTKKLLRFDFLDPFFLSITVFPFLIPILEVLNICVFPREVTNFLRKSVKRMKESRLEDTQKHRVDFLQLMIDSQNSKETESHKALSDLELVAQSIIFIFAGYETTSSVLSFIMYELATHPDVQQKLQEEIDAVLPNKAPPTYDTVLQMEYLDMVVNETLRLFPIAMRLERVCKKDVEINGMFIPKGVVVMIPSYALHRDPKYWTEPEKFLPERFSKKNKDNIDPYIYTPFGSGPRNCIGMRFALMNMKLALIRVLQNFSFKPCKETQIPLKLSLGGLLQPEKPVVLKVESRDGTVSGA

[13] = Effect of Wnt/beta-Catenin signaling pathway in human SW480 cells assessed as reduction in HPRT level at 5 uM incubated for 24 hrs by qRT-PCR analysis relative to control; type: functional; details: SW480, 24 h
[14] = Effect of Wnt/beta-Catenin signaling pathway in human SW480 cells assessed as reduction in Axin2 level at 5 uM incubated for 24 hrs by qRT-PCR analysis relative to control; type: functional; details: SW480, 24 h
[15] = Effect of Wnt/beta-Catenin signaling pathway in human SW480 cells assessed as reduction in Axin2 level at 20 uM incubated for 24 hrs by qRT-PCR analysis relative to control; type: functional; details: SW480, 24 h
[16] = Effect of Wnt/beta-Catenin signaling pathway in human SW480 cells assessed as reduction in Cyclin D1 level at 5 uM incubated for 24 hrs by qRT-PCR analysis relative to control; type: functional; details: SW480, 24 h
[17] = Effect of Wnt/beta-Catenin signaling pathway in human SW480 cells assessed as reduction in Cyclin D1 level at 20 uM incubated for 24 hrs by qRT-PCR analysis relative to control; type: functional; details: SW480, 24 h
[18] = Effect of Wnt/beta-Catenin signaling pathway in human SW480 cells assessed as reduction in BCL9L level at 5 uM incubated for 24 hrs by qRT-PCR analysis relative to control; type: functional; details: SW480, 24 h
[19] = Effect of Wnt/beta-Catenin signaling pathway in human SW480 cells assessed as reduction in BCL9L level at 20 uM incubated for 24 hrs by qRT-PCR analysis relative to control; type: functional; details: SW480, 24 h
[20] = Effect of Wnt/beta-Catenin signaling pathway in human SW480 cells assessed as reduction in HPRT level at 20 uM incubated for 24 hrs by qRT-PCR analysis relative to control; type: functional; details: SW480, 24 h
[21] = Effect of Wnt/beta-Catenin signaling pathway in human SW480 cells assessed as HPRT level at 10 uM incubated for 24 hrs by qRT-PCR analysis relative to control; details: SW480, 24 h

IC50 [2]: 7 µM
IC50 (SW480 [3]): 14 µM
IC50 (HCT-116): 9.5 µM
IC50 (MDA-MB-468 [4]): 5 µM
inhibition [7]: Dde
half-life [11]: 25.2 min
half-life [12]: 11.6 min
inhibition at 10 min, 10 µM (CYP1A2): 31%
inhibition at 10 min, 10 µM (CYP2C9): 91%
inhibition at 10 min, 10 µM (CYP2D6): 54%
inhibition at 10 min, 10 µM (CYP3A4): 97%
Compound: CC(C)(Oc1cccc(N2CCC[C@@H](C(=O)N(Cc3ccc(-c4cnc5[nH]ccc5c4)cc3)C3CC3)C2)c1)C(=O)N1CCNCC1.Cl
level, % of control at 10 µM [1]: 56%
IC50 (MCF-10A): 36 µM
inhibition (SW480 [5]): Active
inhibition (MDA-MB-468 [6]): Active
level, % of control at 10 µM [8]: 54%
level, % of control at 10 µM [9]: 52%
inhibition (SW480 [10]): Dde
level, % of control at 5 µM [13]: 99%
level, % of control at 5 µM [14]: 72%
level, % of control at 20 µM [15]: 19%
level, % of control at 5 µM [16]: 89%
level, % of control at 20 µM [17]: 29%
level, % of control at 5 µM [18]: 77%
level, % of control at 20 µM [19]: 32%
level, % of control at 20 µM [20]: 99%
level, % of control at 10 µM [21]: 100%
